Laboratory results taken from patent publication US9839618B2, “Compositions and methods relating to proliferative diseases” (The Penn State Research Foundation, priority 2010, dated 2017).

Experiments:
[1] = system: normal cells (melanocytes FOM103, fibroblasts FF2441, keratinocytes HFK); assay: MTS assay, leelamine on normal cells; assay type: cell-based; conditions: Homo sapiens, 72 hour exposure, read-out: concentration to kill 50% of normal cells
Experimental: (§1) The efficacy of leelamine to kill other cancer types is measured and the IC50 for cell lines derived from carcinomas of breast, lung, prostate, connective tissue, pancreas and colon determined. The MTS assay as described in Sharma, A. et al., Clin Cancer Res, 2009, 15:1674-85; and Madhunapantula, S. V. et al., Mol Cancer Ther, 2008, 7:1297-308 is used to establish the IC50 at 24, 48 and 72 hours of leelamine treatment for normal human epidermal melanocytes (FOM103), normal skin fibroblast cells (FF2441), normal skin keratinocytes (HFK) and compared to melanocytic lesion cells from the radial-, vertical- and metastatic melanoma stages. […] IC50 values for each compound in μmol/L for respective cell lines are measured from three independent experiments using GraphPad Prism version 4.01 (GraphPad Software, La Jolla, Calif.). […]
(§2) 5×10^3 cells per well in 100 μL of media are plated and grown in a 96-well plate for 48 to 72 hours and treated with either DMSO vehicle control or 0.62 to 40 μmol/L of leelamine for 24, 48 or 72 hours. IC50 values for each compound in μmol/L for respective cell lines are measured from three independent experiments using GraphPad Prism version 4.01 (GraphPad Software, La Jolla, Calif.).

[2] = system: UACC 903 human melanoma cell tumors; assay: Melanoma xenograft tumor development, UACC 903; assay type: in vivo, mice
Experimental: The efficacy of leelamine for inhibiting melanoma tumor development is evaluated on preexisting tumors formed following subcutaneous injection of cancer cells into nude mice. Tumor kinetics are measured by subcutaneous injection of 1.0×10^6 UACC 903 or 1205 Lu cells in 0.2 mL of DMEM supplemented with 10% FBS subcutaneously injected above both left and right rib cages of 3- to 4-wk-old female athymic nude-Foxn1^nu mice (Harlan Laboratories, Indianapolis, Ind.). Six days later, when a fully vascularized tumor (50-75 mm^3) has formed, mice are randomly divided into DMSO vehicle control and experimental groups (5 mice/group; 2 tumors/mouse) and treated intraperitoneally with 2.5-7.5 mg/kg body weight leelamine daily for 3-4 weeks. Body weight (grams) and dimensions of the developing tumors (mm^3) are measured at the time of drug treatment as described in Sharma, A. et al., Clin Cancer Res, 2009, 15:1674-85; and Madhunapantula, S. V. et al., Mol Cancer Ther, 2008, 7:1297-308.
In this example, leelamine (40, 60, or 80 mg/kg body weight) is administered orally to 4-6 weeks old nude mice bearing UACC903 melanoma cell tumors (50-100 mm^3). Sizes of developing tumors are measured. […] Values±S.E.M. (n=5)
Tumor kinetics are measured by subcutaneous injection of 1.0×10^6 UACC 903 or 1205 Lu cells in 0.2 mL of DMEM supplemented with 10% FBS subcutaneously injected above both left and right rib cages of 3- to 4-wk-old female athymic nude-Foxn1^nu mice (Harlan Laboratories, Indianapolis, Ind.). Six days later, when a fully vascularized tumor (50-75 mm^3) has formed, mice are randomly divided into control and experimental groups (5 mice/group; 2 tumors/mouse) and treated with 30-mg/kg body weight of empty liposome vehicle, abietic acid liposomes or Nanolipolee-007 intravenously each day for 3-4 weeks. Body weight (grams) and dimensions of the developing tumors (mm^3) are measured at the time of drug treatment.

[3] = system: non-melanoma cancer cell lines; assay: MTS assay, leelamine on non-melanoma cancer cell lines; assay type: cell-based; conditions: breast, lung, prostate, connective tissue, pancreas, colon lines
Experimental: The efficacy of leelamine to kill other cancer types is measured and the IC50 for cell lines derived from carcinomas of breast, lung, prostate, connective tissue, pancreas and colon determined. The MTS assay as described in Sharma, A. et al., Clin Cancer Res, 2009, 15:1674-85; and Madhunapantula, S. V. et al., Mol Cancer Ther, 2008, 7:1297-308 is used to establish the IC50 at 24, 48 and 72 hours of leelamine treatment for normal human epidermal melanocytes (FOM103), normal skin fibroblast cells (FF2441), normal skin keratinocytes (HFK) and compared to melanocytic lesion cells from the radial-, vertical- and metastatic melanoma stages. 5×10^3 cells per well in 100 μL of media are plated and grown in a 96-well plate for 48 to 72 hours and treated with either DMSO vehicle control or 0.62 to 40 μmol/L of leelamine for 24, 48 or 72 hours. IC50 values for each compound in μmol/L for respective cell lines are measured from three independent experiments using GraphPad Prism version 4.01 (GraphPad Software, La Jolla, Calif.). Leelamine is found to be not toxic to normal cells and effective to kill melanoma cells as well as non-melanoma cancer cells as shown in Table 1 in FIG. 20. Leelamine is 3- to 4-fold more specific at killing metastatic melanoma than normal cells, supporting cancer therapeutic utility at concentrations<2 μmol/L.

[4] = system: cell lines established from melanocytic lesions or melanomas; assay: MTS assay, leelamine on melanocytic lesion and melanoma cell lines; assay type: cell-based; conditions: 72 hour exposure; read-out: concentration to kill 50% of cells
Experimental: as §1, §2

[5] = system: UACC 903 and 1205 Lu melanoma cells; assay: Cell cycle analysis (propidium iodide, FACScan); assay type: cell-based, human; conditions: 2 or 3 μmol/L, 24 h
Experimental: Analysis of the effects of leelamine on cell cycle is performed by growing UACC 903 and 1205 Lu melanoma cells in 100-mm culture dishes followed by treatment with 2 or 3 μmol/L of leelamine for 24 h. Total floating and adherent cells are collected following trypsinization and stained using 1 mL propidium iodide solution containing 100 μg/mL propidium iodide; (Sigma, St Louis, Mo.), 20 μg/mL Ribonuclease A (Roche diagnostics, Indianapolis, Ind.) and 3 μg/mL Triton X-100 dissolved in 0.1% (W/V) sodium citrate for 30 m at 4° C. Stained cells are analyzed using the FACScan analyzer (Becton Dickinson, Franklin lakes, NJ) and data processed utilizing ModFit LT software (Verity Software House, Topsham, Me.) as described in Sharma, A. et al., Clin Cancer Res, 2009, 15:1674-85; and Madhunapantula, S. V. et al., Mol Cancer Ther, 2008, 7:1297-308.

[6] = system: UACC 903 and 1205 Lu cells; assay: Caspase-3/7 apoptosis assay; assay type: cell-based, human; conditions: 0.62 to 10 μmol/L, 24 hours
Experimental: The mechanistic basis of leelamine's activity to inhibit melanoma cell growth is determined by examining the effect of leelamine on 1) cell viability using the MTS assay; 2) proliferation using a BrdU incorporation assay; 3) apoptosis using an assay for caspase-3/7 activity; and 4) cell cycle analysis. The MTS assay as described in Sharma, A. et al., Clin Cancer Res, 2009, 15:1674-85; and Madhunapantula, S. V. et al., Mol Cancer Ther, 2008, 7:1297-308 is used to assay cell viability. Rates of proliferation and apoptosis are measured by seeding 5×10^3 cells in 96-well plates, followed by treatment with 0.62 to 10 μmol/L of leelamine for 24 hours. Proliferating and apoptotic cells are quantified using a colorimetric cell proliferation ELISA BrdU kit (Roche diagnostics, Indianapolis, Ind.) or Apo-ONE Homogenous caspase-3/7 assay kit (Promega, Madison, Wis.), respectively, as described in Sharma, A. et al., Clin Cancer Res, 2009, 15:1674-85; and Madhunapantula, S. V. et al., Mol Cancer Ther, 2008, 7:1297-308.

Q: Which results are given for `CC(C)c1ccc2c(c1)CCC1[C@](C)(CN)CCC[C@]21C` (stereo partly drawn) [Leelamine, [(1R,4aS)-1,4a-dimethyl-7-(propan-2-yl)-1,2,3,4,4a,9,10,10a-octahydrophenanthren-1-yl]methanamine]?
A: IC50 [1]: 5 to 8 µM; body weights of tumor bearing mice ([2]; UACC 903 and 1205 Lu xenograft nude mice, i.p. 2.5-7.5 mg/kg daily): no significant differences; reduction of tumor volume, UACC 903 ([2]; intraperitoneally 2.5-7.5 mg/kg daily for 3-4 weeks, compared to DMSO vehicle): 61%; reduction of tumor growth development, oral ([2]; orally 40, 60 or 80 mg/kg, compared to DMSO control): ~45%; IC50 [3]: 1 to 10 µM; IC50 [4]: 1000 to 3000 nM; cell cycle distribution [5]: increased percentage of sub-G0-G1 and G0/G1 cell populations, with a corresponding decrease in S-phase population; apoptosis (caspase-3/7 activity) [6]: increase apoptosis
